Reference: PubChem BioAssay (NCI)
“And” between values parts separate entries of the source, which are not always exact repeats. Equal values may be shown once.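 Tested at 5 concentrations; 48 h exposure; 96-well plates; endpoints linearly interpolated, else capped at highest concentration. The concentration for 50% growth inhibition is given as GI50. At the TGI there is no net growth.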

Experiments:
Test in all cases: DTP human tumour cell line panel, 48 h
[1] = tested on: KM20L2 colon
[2] = tested on: MDA-N
[3] = tested on: DLD-1 colon
[4] = tested on: BT-549 breast
[5] = tested on: DMS 114 small cell lung
[6] = tested on: PC-3 prostate
[7] = tested on: LXFL 529 NSCLC
[8] = tested on: M19-MEL melanoma
[9] = tested on: RXF-631 renal

SMILES | TGI [1] | TGI [2] | TGI [3] | TGI [4] | TGI [5] | TGI [6] | TGI [7] | TGI [8] | TGI [9] | GI50 [4] | GI50 [6]
CCOC(=O)C(Cc1cc(OC)c(CC(C(=O)OCC)C(=O)OCC)cc1OC)C(=O)OCC | > 100 µM | > 100 µM | > 100 µM | > 100 µM | > 100 µM | > 100 µM | > 100 µM | > 100 µM |  |  | 
Nc1ccc(C(=O)N/C(=C\c2ccc3c(c2)OCO3)c2nc3ccccc3s2)cc1 | 28.7 µM |  | 59.7 µM |  |  |  | 22.4 µM | 32.6 µM | 35.1 µM |  | 
CCOC(=O)/C=C/c1ccc([N+](=O)[O-])o1 |  |  |  | 11.4 µM |  | 39.9 µM |  |  |  | 3.43 µM | 11.8 µM
CCOC1=C/C(=N\Nc2ccc([N+](=O)[O-])cc2)CCC1 |  |  |  | 43.8 µM |  | > 100 µM |  |  |  |  | 
COc1ccc(-c2cn3ccnc3c(-c3ccc(Cl)cc3)n2)cc1 |  |  |  | > 100 µM |  | > 100 µM |  |  |  | 16.5 µM | 14.5 µM
O=C(C#Cc1ccccc1)NC/C=C/c1ccccc1 | > 100 µM |  | > 100 µM |  | > 100 µM |  | > 100 µM | > 100 µM |  |  | 
CCOC(=N)CC(=O)Nc1ccccc1CC | > 100 µM |  | > 100 µM |  |  |  | > 100 µM | > 100 µM | > 100 µM |  | 
C=C1C(=O)O[C@@H]2C[C@@H](C)[C@@H]3C=CC(=O)[C@@]3(C)[C@@H](OC(=O)CCCC(=O)O[C@H]3[C@@H]4C(=C)C(=O)O[C@@H]4C[C@@H](C)[C@@H]4C=CC(=O)[C@]43C)[C@H]12 |  | 0.0431 µM |  | 0.07 µM |  | 0.299 µM |  |  |  |  | 
CC(C)(O)c1cc(Nc2cc(Oc3cn(C4CC4)nc3C3CCOCC3)ccn2)ccn1 |  |  |  | > 100 µM |  | > 100 µM |  |  |  | 56.7 µM | 88.1 µM
CC(C)C(Br)C(=O)NCC(=O)O (stereo unspecified) |  | > 100 µM |  | > 100 µM |  | > 100 µM |  |  |  |  | 
Nc1ccccc1SC(/C=C/NNC1=NC(c2ccccc2)C(c2ccccc2)=NN1)c1ccccc1 (stereo unspecified) | 44.9 µM |  | 31.8 µM |  | 30.1 µM |  |  | 25 µM |  |  | 
CN(C)C(=S)/N=c1\ssc(=Nc2ccccc2)n1-c1ccccc1 |  |  | > 100 µM |  | 29.8 µM |  |  | > 100 µM | > 100 µM |  | 
CCCCS(=O)(=O)c1cc(Nc2ccc(O)c3c2C(=O)c2ccccc2C3=O)ccc1C |  |  |  | > 100 µM |  | > 100 µM |  |  |  | > 100 µM | > 100 µM
NCCOCCOCC(=O)O | > 100 µM |  |  |  | > 100 µM |  | > 100 µM | > 100 µM |  |  | 
CCCCC[C@H]1C/C=C2/C(=O)C=C[C@@H]2C/C=C\CCCC(=O)O1 |  |  |  | 0.468 µM |  | 0.844 µM |  |  |  | 0.147 µM | 0.165 µM
OC(Cc1cccc2ccccc12)CN1CCC(c2ccccc2)CC1 (stereo unspecified) |  | 27.3 µM |  | 31.3 µM |  | 30.5 µM |  |  |  |  | 
CN1C2C=CC(=O)C1C(C#N)C2 (stereo unspecified) |  | > 100 µM |  | > 100 µM |  | > 100 µM |  |  |  | 34.5 µM and 93.1 µM | 
Cc1cc(C)nc(NC(=O)COc2ccc(Cl)cc2)c1 |  | > 100 µM |  | > 100 µM |  | > 100 µM |  |  |  |  | 
COC(=O)c1c(C(=O)O)c(-c2ccccc2)c(-c2ccccc2)c(-c2ccccc2)c1-c1ccccc1 |  |  |  | > 100 µM |  | > 100 µM |  |  |  | > 100 µM | > 100 µM

SMILES | TGI [1] | TGI [2] | TGI [3] | TGI [4] | TGI [5] | TGI [6] | TGI [7] | TGI [8] | TGI [9] | GI50 [4] | GI50 [6]
Cn1cc(-c2csc(-c3ccc(Cl)cc3)n2)c2cccnc21 |  |  |  | 51.9 µM |  | 34.2 µM |  |  |  | 18.6 µM | 11.4 µM
CC(=O)/C(=N\N=C(N)N)c1ccccc1 |  | > 100 µM |  | > 100 µM |  | > 100 µM |  |  |  |  | 
COc1cc(N)c(Cl)cc1C(=O)N[C@@H]1CCN(CCCOc2ccc(F)cc2)C[C@@H]1OC |  |  |  | > 100 µM |  |  |  |  |  | 34.9 µM | 
Cc1cc(O)c2c(c1)OC1(C)CCC3C(C)(C)CCCC34COC2C14 (stereo unspecified) | 33.3 µM |  | 36.8 µM |  | 27.1 µM |  | 28.2 µM |  |  |  | 
S=C(Nc1ccc(-c2nc3ccccc3s2)cc1)Nc1ccc(-c2nc3ccccc3s2)cc1 |  |  |  | 40.1 µM |  | > 100 µM |  |  |  | 9.36 µM | 26.8 µM
COc1ccc(N=c2nc3sc4cc(Cl)ccc4n3c(N)c2C#N)cc1 |  |  |  | 98 µM |  | > 100 µM |  |  |  | 5.17 µM | 15.4 µM
CCN(CC)c1ccc(/C=N/N=C(N)N)cc1 |  |  |  | 33.9 µM |  | 92.9 µM |  |  |  | 6.84 µM | 3.51 µM
NC(=S)c1cccc(C2Nc3ccccc3O2)c1 (stereo unspecified) |  |  |  |  |  | > 100 µM |  |  |  |  | 
COc1ccc(C(=O)c2ccccc2)c(O)c1 |  |  |  |  |  | > 100 µM |  |  |  |  | > 100 µM
N#C/C(=C/C=C/c1cccc(Cl)c1)S(=O)c1ccccc1 (stereo unspecified) |  |  |  |  |  | 0.867 µM |  |  |  |  | 0.25 µM
O=C(O)C1CC2C=CCC(C2)C1 (stereo unspecified) | > 100 µM |  | > 100 µM |  | > 100 µM |  | > 100 µM | > 100 µM |  |  | 
CC(=O)c1nc(-c2ccc(C[C@@H](CNC(=O)CN(C)C)NC(=O)c3ccc(OC(C)C)c(Cl)c3)cc2)cn1C |  |  |  | 19.5 µM |  | 19.6 µM |  |  |  | 0.285 µM | 0.0652 µM
COC(=O)CCC(NC(=S)N/N=C(\C)c1cccs1)C(=O)OC (stereo unspecified) | > 100 µM |  | > 100 µM |  | > 100 µM |  | > 100 µM | > 100 µM |  |  | 
CCOc1ccc2cc(-c3nn(CC4CCN(C)CC4)c4ncnc(N)c34)ccc2c1 |  |  |  | 29 µM |  | 43.5 µM |  |  |  | 13.6 µM | 17 µM
COc1ccc2c(c1)[n+](=O)c(/C=C/C(=O)c1cc(OC)c(OC)c(OC)c1)c(C)n2[O-] |  |  |  | 65 µM |  | > 100 µM |  |  |  | 6.11 µM | 15.7 µM
COC(=O)C1=C(O)c2cc(OC)c(OC)c(OC)c2C(c2ccc3c(c2)OCO3)[C@@H]1C(=O)OC (stereo partly specified) | 6.43 µM |  | > 100 µM |  | 5.96 µM |  | > 100 µM |  | > 100 µM |  | 
O=C1C=C(NCCc2ccccc2)c2ccccc2C1=O | 18.7 µM | 3.39 µM | 21.9 µM | 3.77 µM | 5.81 µM | 26.2 µM | 19.1 µM | 0.927 µM |  |  | 
COc1ccc(C2=NNC(c3sc(Cl)nc3Cl)C2)cc1 (stereo unspecified) |  |  |  | 9.82 µM |  | 29.5 µM |  |  |  | 2.89 µM | 6.11 µM
